Laboratory results published in patent US6686145B1, “Rigidized trimethine cyanine dyes” (Carnegie Mellon University, priority 1997, dated 2004).
Where no end group is shown, it is not given here. [ ]: non-standard residue; d: D form. Compound III = 6,7,9,10-tetrahydro-2-carboxymethyl-14-sulphonato-16,16,18,18-tetramethyl-7aH,8aH-bisindolinium[3,2-a,3'2'-a']pyrano[3,2-c,5,6-c']dipyridin-5-ium dye (NHS ester used for labelling); {C7NH2-CompoundIII} = C7 amino linker labelled with Compound III NHS ester; pY = N[C@@H](Cc1ccc(OP(=O)(O)O)cc1)C(=O)O

Tests used:
[1] = Comparison of spectral properties of rigidized Cy3 and open chain Cy3 dyes; format: physicochemical
Excerpt: The spectral properties of the rigidized dye were compared with the known open chain Cy3.18.OH and Cy3.10.OH dyes (FIG. 2). The absorption maxima of the rigid dye shifted to the red by 12 nm in methanol and as expected it is 10-12 time brighter that the non-rigidized indocyanines.

[2] = tested on: complementary probe oligonucleotide; test: Nucleic acid FRET hybridization assay; format: binding; details: 560 nm excitation, 670 nm emission
Procedure: The oligonucleotides were deprotected for 17 hours at 40° C. and purified by reverse phase HPLC using a C18 column and a 40% TEAA/acetonitrile gradient. The desired peaks were collected, freeze dried and the samples were resuspended in sterile H2O.
Amino modified target and probe oligonucleotides were incubated with a 10-fold molar excess of 6,7,9,10-tetrahydro-2-carboxymethyl-14-sulphonato-16,16,18,18-tetramethyl-7aH,8aH-bisindolinium[3,2-a;3′2′-a′]pyrano[3,2-c;5,6-c′]dipyridin-5-ium (Compound III), N-hydroxysuccinimide ester and Cy5 NHS-ester dye (Amersham Pharmacia Biotech) respectively, in 0.1M sodium bicarbonate buffer (pH9), overnight at 22° C. The following morning, the oligonucleotides were ethanol precipitated and the resulting pellets were resuspended in H2O. […] Residues were resuspended into H2O and concentration of recovered material was determined.
Wells of a black, streptavidin coated 96-well plate were coated with either unlabelled or Compound III-labelled target oligonucleotides (20 pmol/well diluted in 100 μl PBS/1 MgCl2) for 120 minutes at ambient temperature. […] Finally, wells were washed vigorously with PBS and fluorescence intensity was measured on a fluorescence plate reader using a 560 nm excitation filter and a 670 nm emission filter (FIG. 7).

[3] = biological target: Grb2 glutathione-S-transferase fusion protein (Homo sapiens, UniProt P62993); test: Protein:peptide polarization binding assay; details: non-specific binding defined with 100 μM unlabelled peptide, 60 minutes
Procedure: A peptide of sequence E-pY-I-N-Q-S-V-P-K (E9K) was prepared by solid phase synthesis on an Applied Biosystems 431A peptide synthesizer using standard methods and materials. An excess of 6,7,9,10-tetrahydro-2-carboxymethyl-14-sulphonato-16,16,18,18-tetramethyl-7aH,8aH-bisindolinium[3,2-a;3′2′-a′]pyrano[3,2-c;5,6-c′]dipyridin-5-ium (Compound III), N-hydroxysuccinimide ester was coupled in DMSO in the presence of diisopropylethylamine to the free N-terminus of the protected peptide whilst still attached to the solid phase. After deprotection for two hours, the crude labelled peptide was purified by reverse phase HPLC, using a gradient from water/0.1%TFA to water:acetonitrile (40:60)/0.1%TFA over 60 minutes.
Various concentrations of Grb2 glutathione-S-transferase fusion protein and E9K labelled with Compound III in 20 mM MOPS pH7.4/10 mM DTT/005% Tween 20 were incubated in a final volume of 150 μl in black 96-well microplates (Dynatech) for 60 minutes. […] Polarization values were read on a Fluorolite FPM2™ plate reader (Jolley Research and Consulting Inc.) using a 530DF30 filter for excitation and 590DF45 filter for emission.

NF-kB-specific dsDNA = test: Protein:DNA direct intensity binding assay; details: competitor 200 pmol/well (40 fold molar excess for p65) versus p65GST
Procedure: All HPLC purified oligonucleotides were obtained from Genosys Biotechnologies Ltd. Equimolar amounts of a biotinylated coding strand (5′ Biotin-[…] CCGCG 3′) and an unmodified non-coding strand (5′ […] 3′) specific for NF-kB were incubated together in a boiling water bath for 3 minutes and allowed to anneal by cooling over 2 hours.
Anti-GST antibody (3 mg/ml, 1.5 mg supplied/vial (0.5 ml) from Molecular Probes) was dialysed against 1 litre of 0.15M sodium chloride for 4 hours at room temperature and dialysis was continued overnight at 4° C. in a fresh solution of 0.15M sodium chloride. The following morning the antibody was dialysed against 1 litre of 0.1M sodium hydrogen carbonate for a maximum of 4 hours.
A 1 mg/ml solution of 6,7,9,10-tetrahydro-2-carboxymethyl-14-sulphonato-16,16,18,18-tetramethyl-7aH,8aH-bisindolinium[3,2-a;3′2′-a′]pyrano[3,2-c;5,6-c′]dipyridin-5-ium (Compound III), N-hydroxysuccinimide ester in DMSO was added gradually with stirring to the antibody at a ratio of 0.10 mg dye: 0.33 mg antibody. […]
Biotin-labelled NF-kB-specific dsDNA (2.5 pmol, diluted in 0.01 MMgCl2) was added to each well (final volume, 100 μl) of a 96-well streptavidin coated microplate (Boehringer Mannheim) and incubated at room temperature for 2 hours. […] The plate was read at Ex535/Em569 and Ex560/595 in the Biolumin 960 fluorescence microplate reader (Molecular Dynamics Inc.).

[4] = tested on: NF-kB-specific double stranded (ds) DNA; test: Protein:DNA FRET binding assay; details: competitor 200 pmol/well (10 fold molar excess for p65), Ex520/Em670
Procedure: All HPLC purified NF-kB-specific oligonucleotides were obtained from Genosys Biotechnologies Ltd: a coding strand modified with a 5′ terminal primary amine (5′ NH2-[…] 3′) and an unmodified non-coding strand (5′ […] 3′). A 10-fold molar excess of Cy-5-NHS ester dye (Amersham Pharmacia Biotech) was incubated with the coding strand, in 0.1M sodium bicarbonate buffer (pH9), overnight at 22° C. The following morning the oligonucleotide was ethanol precipitated and then resuspended in water. The labelled coding strand was purified by reverse phase HPLC using a C18 column and a 60% TEAA/acetonitrile gradient. The peak containing labelled oligonucleotide was freeze dried and resuspended in water.
NF-kB-specific double stranded (ds) DNA was generated by incubating together equimolar amounts of the Cy-5 labelled coding strand (5′ Cy5-[…] […] 3′) and the unmodified non-coding strand (5′ […] […] 3′) in a boiling water bath for 3 minutes and allowing to anneal by cooling over 2 hours.
NF-kB p65 protein ([…]) was diluted to 1000 μl in 0.01M phosphate buffered saline. […]
A black microtitre plate (Dynatech) was used for the FRET assay. […] The plate was read at Ex520/Em670 in the Biolumin 960 fluorescence microplate reader (Molecular Dynamics Inc.).

Chain of Grb2 glutathione-S-transferase fusion protein (P62993 whole entry, the tested form may be a part): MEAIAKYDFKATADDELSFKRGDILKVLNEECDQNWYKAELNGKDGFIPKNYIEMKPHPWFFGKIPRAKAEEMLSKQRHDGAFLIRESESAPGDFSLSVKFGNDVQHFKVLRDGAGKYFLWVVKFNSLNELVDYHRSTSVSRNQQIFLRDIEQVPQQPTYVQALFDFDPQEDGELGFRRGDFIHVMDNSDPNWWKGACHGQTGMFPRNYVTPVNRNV

CC1(C)C2=C3C=C4C5=[N+](CCC4OC3CCN2c2ccc(CC(=O)O)cc21)c1ccc(CC(=O)O)cc1C5(C)C (centres unmarked) [Compound I, 6,7,9,10-Tetrahydro-2,14-carboxymethyl-16,16,18,18-tetramethyl-7aH,8aH-bisindolinium[3,2-a;3′2′-a′]pyrano[3,2-c;5,6-c′]dipyridin-5-ium]
QY (Φ) ([1]; dye in methanol): 0.8
λmax ([1]; dye in methanol): 565
absorption maxima shifted to the red ([1]; in methanol, versus open chain Cy3 dyes): 12 nm
brightness relative to the non-rigidized indocyanines ([1]; versus non-rigidized indocyanines): 10-12 time

Compound III-labelled target oligonucleotide: 5′ C7 amino-modified TAC CCA GAC GAG CAA-biotin 3′ labelled with Compound III NHS ester (DNA TACCCAGACGAGCAA; DNA, 5' {C7NH2-CompoundIII}, 3' {Biotin}, backbone not given here)
fluorescence signal (FRET) ([2]; incubated with Cy5-labelled probe): strong fluorescence signal
fluorescence signal (FRET) ([2]; incubated with unlabelled probe): low fluorescence signals

Compound III-labelled peptide: peptide E-pY-I-N-Q-S-V-P-K (E9K) labelled at the free N-terminus with Compound III ({Compound III}-E[pY]INQSVPK)
binding to Grb2 protein as determined by change in polarization [3]: specific binding

casein
reduction of the total signal (NF-kB-specific dsDNA): 25%
reduction of the total signal [4]: no effect

p65: NF-kB p65 protein, specific competitor
reduction of the total signal (NF-kB-specific dsDNA): approximately 90%
reduction of the total signal [4]: 40%
